US11026427B2, “Microbiocidal oxadiazole derivatives” (SYNGENTA PARTICIPATIONS AG, priority 2016, dated 2021)

Legend:
[1] = system: Glomerella lacenarium (Colletotrichum lacenarium); experiment: Glomerella lacenarium (Colletotrichum lacenarium) liquid culture / cucumber / preventative (anthracnose); type: cell-based; settings: 20 ppm in the applied formulation, growth inhibition measured photometrically, compared to untreated control, read-out: disease control
Experimental: Mycelia fragments or conidia suspensions of a fungus prepared either freshly from liquid cultures of the fungus or from cryogenic storage, are directly mixed into nutrient broth. DMSO solutions of the test compound (max. 10 mg/ml) are diluted with 0.025% Tween20 by a factor of 50 and 10 μl of this solution is pipetted into a microtiter plate (96-well format). The nutrient broth containing the fungal spores/mycelia fragments is then added to give an end concentration of the tested compound. The test plates are incubated in the dark at 24° C. and 96% relative humidity. The inhibition of fungal growth is determined photometrically after 2 to 7 days, depending on the pathosystem, and percent antifungal activity relative to the untreated check is calculated.
Conidia of the fungus from cryogenic storage are directly mixed into nutrient broth (PDB—potato dextrose broth). After placing a (DMSO) solution of test compound into a microtiter plate (96-well format), the nutrient broth containing the fungal spores is added. The test plates are incubated at 24° C. and the inhibition of growth is measured photometrically 3 to 4 days after application.
The following compounds at 20 ppm in the applied formulation give at least 80% disease control in this test when compared to untreated control under the same conditions, which show extensive disease development.

Phakopsora pachyrhizi = Phakopsora pachyrhizi / soybean / leaf disc preventative (Asian soybean rust); type: in vivo; settings: foliar, 200 ppm in the applied formulation, compared to untreated control, read-out: disease control
Experimental: (§1) Leaf disks or leaf segments of various plant species are cut from plants grown in a greenhouse. The cut leaf disks or segments are placed in multiwell plates (24-well format) onto water agar. The leaf disks are sprayed with a test solution before (preventative) or after (curative) inoculation. Compounds to be tested are prepared as DMSO solutions (max. 10 mg/ml) which are diluted to the appropriate concentration with 0.025% Tween20 just before spraying. The inoculated leaf disks or segments are incubated under defined conditions (temperature, relative humidity, light, etc.) according to the respective test system. A single evaluation of disease level is carried out 3 to 14 days after inoculation, depending on the pathosystem. Percent disease control relative to the untreated check leaf disks or segments is then calculated.
Soybean leaf disks are placed on water agar in multiwell plates (24-well format) and sprayed with the formulated test compound diluted in water. One day after application leaf discs are inoculated by spraying a spore suspension on the lower leaf surface. After an incubation period in a climate cabinet of 24-36 hours in darkness at 20° C. and 75% rh leaf disc are kept at 20° C. with 12 h light/day and 75% rh. The activity of a compound is assessed as percent disease control compared to untreated when an appropriate level of disease damage appears in untreated check leaf disks (12 to 14 days after application).
(§2) The following compounds at 200 ppm in the applied formulation give at least 80% disease control in this test when compared to untreated control leaf disks under the same conditions, which show extensive disease development.

[2] = system: Puccinia recondita f. Sp. tritici; experiment: Puccinia recondita f. sp. tritici / wheat / leaf disc curative (brown rust); type: in vivo; settings: foliar, 200 ppm in the applied formulation, compared to untreated control, read-out: disease control
Experimental: as §1
Wheat leaf segments cv. Kanzler are placed on agar in multiwell plates (24-well format). The leaf segments are then inoculated with a spore suspension of the fungus. Plates were stored in darkness at 19° C. and 75% relative humidity. The formulated test compound diluted in water was applied 1 day after inoculation. The leaf segments were incubated at 19° C. and 75% relative humidity under a light regime of 12 hours light/12 hours darkness in a climate cabinet and the activity of a compound was assessed as percent disease control compared to untreated when an appropriate level of disease damage appears in untreated check leaf segments (6 to 8 days after application).
as §2

[3] = system: Puccinia recondita f. Sp. tritici; experiment: Puccinia recondita f. sp. tritici / wheat / leaf disc preventative (brown rust); type: in vivo; settings: foliar, 200 ppm in the applied formulation, compared to untreated control, read-out: disease control
Experimental: as §1, with “calculated. Wheat leaf segments cv. Kanzler were placed on agar in multiwell plates (24-well format) and sprayed with the formulated test compound diluted in water. The leaf disks were inoculated with a spore suspension of the fungus 1 day after application. The inoculated leaf segments were incubated at 19° C. and 75% relative humidity (rh) under a light regime of 12 hours light/12 hours darkness in a climate cabinet and the activity of a compound was assessed as percent disease control compared to untreated when an appropriate level of disease damage appears in untreated check leaf segments (7 to 9 days after application). The following compounds at 200 ppm in the applied formulation give at least 80% disease control in this test when compared to untreated control leaf disks under the same conditions, which show extensive disease development.” for “calculated.”

SMILES	melting point [°C]	inhibition of growth at 20 ppm [1] [%]	pest or weed control at 200 ppm (Phakopsora pachyrhizi) [%]	pest or weed control at 200 ppm [2] [%]	pest or weed control at 200 ppm [3] [%]
CCCCC(=O)c1ccc(-c2noc(C(F)(F)F)n2)cc1 [Compound 1.5, 1-[4-[5-(trifluoromethyl)-1,2,4-oxadiazol-3-yl]phenyl]pentan-1-one]	57 to 61	≥ 80	–	–	–
COc1ccc(C(=O)c2ccc(-c3noc(C(F)(F)F)n3)cc2)cn1 [Compound 1.15, (6-methoxy-3-pyridyl)-[4-[5-(trifluoromethyl)-1,2,4-oxadiazol-3-yl]phenyl]methanone]	105 to 110	≥ 80	≥ 80	–	–
CCOC(=O)c1cnn(CC(=O)c2ccc(-c3noc(C(F)(F)F)n3)cc2)c1 [Compound 1.19, ethyl 1-[2-oxo-2-[4-[5-(trifluoromethyl)-1,2,4-oxadiazol-3-yl]phenyl]ethyl]pyrazole-4-carboxylate]	153.6 to 156.1	–	–	–	–
O=C(c1ccc(-c2noc(C(F)(F)F)n2)cc1)c1ncc(C(F)(F)F)s1 [Compound 1.21, [4-[5-(trifluoromethyl)-1,2,4-oxadiazol-3-yl]phenyl]-[5-(trifluoromethyl)thiazol-2-yl]methanone]	90 to 94	–	–	–	–
CCOC(=O)c1cc(C(=O)c2ccc(-c3noc(C(F)(F)F)n3)cc2)on1 [Compound 1.22, ethyl 5-[4-[5-(trifluoromethyl)-1,2,4-oxadiazol-3-yl]benzoyl]isoxazole-3-carboxylate]	197 to 200	≥ 80	–	–	–
O=C(c1ccc(-c2noc(C(F)(F)F)n2)cc1)c1cnc(C(F)(F)F)s1 [Compound 1.23, [4-[5-(trifluoromethyl)-1,2,4-oxadiazol-3-yl]phenyl]-[2-(trifluoromethyl)thiazol-5-yl]methanone]	126 to 132	–	–	–	–
CCOC(=O)c1csc(C(=O)c2ccc(-c3noc(C(F)(F)F)n3)cc2)n1 [Compound 1.25, ethyl 2-[4-[5-(trifluoromethyl)-1,2,4-oxadiazol-3-yl]benzoyl]thiazole-4-carboxylate]	78 to 82	–	–	–	–
O=C(c1ccc(-c2noc(C(F)(F)F)n2)cc1)c1cnn(C(F)(F)F)c1 [Compound 1.26, [4-[5-(trifluoromethyl)-1,2,4-oxadiazol-3-yl]phenyl]-[1-(trifluoromethyl)pyrazol-4-yl]methanone]	98 to 102	–	≥ 80	–	–
O=C(c1ccc(-c2noc(C(F)(F)F)n2)cc1)c1ccc(F)cc1F [Compound 1.28, (2,4-difluorophenyl)-[4-[5-(trifluoromethyl)-1,2,4-oxadiazol-3-yl]phenyl]methanone]	92 to 95	≥ 80	≥ 80	–	–
O=C(c1ccc(-c2noc(C(F)(F)F)n2)cc1)c1cccc(OC(F)F)c1 [Compound 1.29, [3-(difluoromethoxy)phenyl]-[4-[5-(trifluoromethyl)-1,2,4-oxadiazol-3-yl]phenyl]methanone]	85 to 88	≥ 80	≥ 80	–	–
CCOC(=O)c1cnc(C(=O)c2ccc(-c3noc(C(F)(F)F)n3)cc2)nc1C [Compound 1.31, ethyl 4-methyl-2-[4-[5-(trifluoromethyl)-1,2,4-oxadiazol-3-yl]benzoyl]pyrimidine-5-carboxylate]	92 to 93	≥ 80	–	–	–
O=C(c1ccc(-c2noc(C(F)(F)F)n2)cc1)c1cscn1 [Compound 1.32, thiazol-4-yl-[4-[5-(trifluoromethyl)-1,2,4-oxadiazol-3-yl]phenyl]methanone]	68 to 74	≥ 80	≥ 80	–	–
Cc1ncc(C(=O)c2ccc(-c3noc(C(F)(F)F)n3)cc2)s1 [Compound 1.34, (2-methylthiazol-5-yl)-[4-[5-(trifluoromethyl)-1,2,4-oxadiazol-3-yl]phenyl]methanone]	116 to 120	≥ 80	–	≥ 80	–
Cc1cncc(C(=O)c2ccc(-c3noc(C(F)(F)F)n3)cc2)c1 [Compound 1.36, (5-methyl-3-pyridyl)-[4-[5-(trifluoromethyl)-1,2,4-oxadiazol-3-yl]phenyl]methanone]	80 to 84	–	–	–	–
OC(c1ccc(-c2noc(C(F)(F)F)n2)cc1)c1ccc(F)cc1F (stereo not drawn) [Compound 2.15, (2,4-difluorophenyl)-[4-[5-(trifluoromethyl)-1,2,4-oxadiazol-3-yl]phenyl]methanol]	–	≥ 80	≥ 80	–	≥ 80
Cc1ccc(C(O)c2ccc(-c3noc(C(F)(F)F)n3)cc2)nc1 (stereo not drawn) [Compound 2.21, (5-methyl-2-pyridyl)-[4-[5-(trifluoromethyl)-1,2,4-oxadiazol-3-yl]phenyl]methanol]	–	–	–	≥ 80	≥ 80
C=CCC(O)(c1ccc(-c2noc(C(F)(F)F)n2)cc1)c1cc(C)no1 (stereo not drawn) [Compound 2.23, 1-(3-methylisoxazol-5-yl)-1-[4-[5-(trifluoromethyl)-1,2,4-oxadiazol-3-yl]phenyl]but-3-en-1-ol]	–	–	–	≥ 80	–
Cc1cc(C(O)(c2ccc(-c3noc(C(F)(F)F)n3)cc2)C(C)C)on1 (stereo not drawn) [Compound 2.29, 2-methyl-1-(3-methylisoxazol-5-yl)-1-[4-[5-(trifluoromethyl)-1,2,4-oxadiazol-3-yl]phenyl]propan-1-ol]	–	–	–	–	≥ 80

Second part, led by results:

melting point [°C]	SMILES	inhibition of growth at 20 ppm [1] [%]	pest or weed control at 200 ppm (Phakopsora pachyrhizi) [%]	pest or weed control at 200 ppm [2] [%]	pest or weed control at 200 ppm [3] [%]
60 to 75	CC(C)(C)C(O)c1ccc(-c2noc(C(F)(F)F)n2)cc1 (stereo not drawn) [Compound 2.1, 2,2-dimethyl-1-[4-[5-(trifluoromethyl)-1,2,4-oxadiazol-3-yl]phenyl]propan-1-ol]	≥ 80	≥ 80	–	–
79 to 80	N#CC(O)c1ccc(-c2noc(C(F)(F)F)n2)cc1 (stereo not drawn) [Compound 2.11, 2-hydroxy-2-[4-[5-(trifluoromethyl)-1,2,4-oxadiazol-3-yl]phenyl]acetonitrile]	≥ 80	–	–	≥ 80
66 to 68	CCC(O)c1ccc(-c2noc(C(F)(F)F)n2)cc1 (stereo not drawn) [Compound 2.16, 1-[4-[5-(trifluoromethyl)-1,2,4-oxadiazol-3-yl]phenyl]propan-1-ol]	≥ 80	–	–	–
45 to 48	C=CCC(O)c1ccc(-c2noc(C(F)(F)F)n2)cc1 (stereo not drawn) [Compound 2.17, 1-[4-[5-(trifluoromethyl)-1,2,4-oxadiazol-3-yl]phenyl]but-3-en-1-ol]	≥ 80	≥ 80	–	–
118 to 122	CCOC(=O)c1csc(C(O)c2ccc(-c3noc(C(F)(F)F)n3)cc2)n1 (stereo not drawn) [Compound 2.19, ethyl 2-[hydroxy-[4-[5-(trifluoromethyl)-1,2,4-oxadiazol-3-yl]phenyl]methyl]thiazole-4-carboxylate]	–	–	–	≥ 80
